Assay results from patent publication US11026426B2, “Oxadiazole and phenol derivatives as antibacterial and/or herbicidal agents” (NORTHERN ILLINOIS RESEARCH FOUNDATION, priority 2017, dated 2021).
Like-named read-outs stand apart in the source and are kept apart here.

What was measured:
[1] = system: Burkholderia thailandensis; type: cell-based
Pseudomonas aeruginosa [2] = experiment: Antibacterial assay zone of inhibition Pa; type: cell-based
Micrococcus luteus [3] = experiment: Antibacterial assay zone of inhibition Ml; type: cell-based
Klebsiella pneumonia [4] = experiment: Antibacterial assay zone of inhibition Kp; type: cell-based
Escherichia coli [5] = experiment: Antibacterial assay zone of inhibition Ec; type: cell-based
Bacillus cereus [6] = experiment: Antibacterial assay zone of inhibition Bc; type: cell-based
Mycobacterium smegmatis [7] = experiment: Antibacterial assay zone of inhibition Ms; type: cell-based
Corynebacterium xerosis [8] = experiment: Antibacterial assay zone of inhibition Cx; type: cell-based
[9] = system: Corynebacterium pseudodiphtheriae; experiment: Antibacterial assay zone of inhibition Cp; type: cell-based
[10] = biological target: T1, Mycobacterium tuberculosis IspD (MtIspD) (Mycobacterium tuberculosis, UniProt P9WKG9); experiment: Thermal shift assay against MtIspD; type: binding
T1 sequence (P9WKG9 1-231): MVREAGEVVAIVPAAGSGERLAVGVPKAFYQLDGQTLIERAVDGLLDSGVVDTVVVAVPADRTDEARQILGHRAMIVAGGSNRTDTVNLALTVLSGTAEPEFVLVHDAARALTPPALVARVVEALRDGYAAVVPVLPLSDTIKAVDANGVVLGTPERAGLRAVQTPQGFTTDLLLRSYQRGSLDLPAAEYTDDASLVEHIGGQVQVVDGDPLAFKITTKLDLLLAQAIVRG

[11] = biological target: Lycopersicon esculentum IspE (LeIspE) (Solanum lycopersicum, UniProt P93841); experiment: Thermal shift assay against LeIspE; type: binding
Lycopersicon esculentum IspE (LeIspE), sequence (P93841 89-401): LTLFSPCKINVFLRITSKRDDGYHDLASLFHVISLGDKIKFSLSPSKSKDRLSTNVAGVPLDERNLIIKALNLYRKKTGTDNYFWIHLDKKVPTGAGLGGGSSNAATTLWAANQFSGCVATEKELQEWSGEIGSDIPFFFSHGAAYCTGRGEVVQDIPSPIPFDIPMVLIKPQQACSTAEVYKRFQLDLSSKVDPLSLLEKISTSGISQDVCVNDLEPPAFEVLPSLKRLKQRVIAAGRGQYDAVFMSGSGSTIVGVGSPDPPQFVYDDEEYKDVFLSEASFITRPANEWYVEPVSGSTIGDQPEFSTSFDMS

lettuce seeds = experiment: Lettuce leaf assay; type: in vivo; set-up: key: 0 (no effect); 5(complete inhibition or bleaching); details: ranking 0-5
Description: The lettuce leaf assay is a qualitative assay used to determine the relative effectiveness of the test compounds at inhibition of germination of seeds and root development as well as causing bleaching of leaves. Isoprenoid synthesis is vital in plants as isoprene-product gibberellins are a class of growth hormones in plants responsible for stimulating cell elongation and division. In addition, some carotenoids are involved in photosynthesis as components of the electron transport chain. MEP pathway inhibitors have the potential to prevent synthesis of these necessary cellular components and growth hormones resulting in inhibition of germination and root development as well as causing chlorosis, or bleaching in the leaves. The lettuce leaf assay, explores the effects of compounds as potential MEP pathway inhibitors by evaluating the effect on bleaching, root development, and germination of lettuce seeds, which all rely on isoprenoid biosynthesis. […] The assay is a qualitative assay and the effects are given rankings from 0 (no effect) to 5 (complete inhibition or bleaching). In this assay, compounds are dissolved in a volatile organic solvent and applied to filter paper in a petri dish. The solvent is allowed to evaporate and lettuce seeds are applied followed by the addition of 5 mL of water to obtain the necessary concentrations. Seeds are allowed to grow and they are observed on day 3 and day 4 for evaluation.

AtIspD = AtIspD (Arabidopsis thaliana, UniProt P69834); experiment: University of Hamburg photometric enzymatic inhibition assay AtIspD; type: biochemical; details: read-out: AtIspD IC50
AtIspD, sequence (P69834 62-302): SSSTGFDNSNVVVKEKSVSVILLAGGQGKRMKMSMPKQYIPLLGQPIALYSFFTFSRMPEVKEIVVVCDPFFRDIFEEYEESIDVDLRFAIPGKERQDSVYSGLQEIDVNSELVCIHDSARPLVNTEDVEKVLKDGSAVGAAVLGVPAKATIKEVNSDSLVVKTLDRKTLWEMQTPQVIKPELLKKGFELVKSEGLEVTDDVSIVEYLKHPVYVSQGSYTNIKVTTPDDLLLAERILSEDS
Description: (§1) Compounds were subjected to a photometric enzymatic assay to test for inhibition of the plant enzymes Arabidopsis thaliana IspD and IspF, and IspE from Lycopersicon esculentum.
The procedure for AtIspD enzymatic inhibition assay, was performed by making an assay mixture of 100 mM Tris hydrochloride at pH 8.0 with 10 mM MgCl2, 1 mM dithiothreitol, 2.5 mM potassium phosphoenol pyruvate, 2.1 mM CTP, 2 mM ATP, 1 mM of (2R,3S)-2,3-dihydroxy-4-oxopentyl phosphate, 460 μM NADH, 1.1% (v/v) DMSO, 0.4 U IspE, 1 U lactate dehydrogenase, 1 U pyruvate kinase and 2.4 mU IspD in 180 μL of solution. Solutions were incubated at 27° C. and monitored photometrically. By preparing the assay mixture with a large excess of IspE compared to IspD, any inhibition of IspE by the test inhibitor would be insignificant compared to IspD and therefore the rate of the reaction is determined by IspD activity.

LeIspE = LeIspE (Solanum lycopersicum, UniProt P93841); experiment: University of Hamburg photometric enzymatic inhibition assay LeIspE; type: biochemical, Lycopersicon esculentum; details: read-out: LeIspE IC50
LeIspE, sequence (P93841 89-401): as the sequence (P93841 89-401) above
Description: as §1
The IspE assay conditions were very similar to the IspD assay in which the assay mixture was composed of 100 mM Tris hydrochloride at pH 8.0 with 10 mM MgCl2, 1 mM dithiothreitol, 2.5 mM potassium phosphoenol pyruvate, 2 mM ATP, 1 mM of 4-Diphosphocytidyl-2-C-methylerythritol, 460 μM NADH, 1.1% (v/v) DMSO, 2.4 mU IspE, 1 U lactate dehydrogenase, 1 U pyruvate kinase in 180 μL of solution. Solutions were incubated at 27° C. and monitored photometrically.

AtIspF = AtIspF (Arabidopsis thaliana, UniProt Q9CAK8); experiment: University of Hamburg photometric enzymatic inhibition assay AtIspF; type: biochemical; details: read-out: AtIspF IC50
AtIspF, sequence (Q9CAK8 53-231): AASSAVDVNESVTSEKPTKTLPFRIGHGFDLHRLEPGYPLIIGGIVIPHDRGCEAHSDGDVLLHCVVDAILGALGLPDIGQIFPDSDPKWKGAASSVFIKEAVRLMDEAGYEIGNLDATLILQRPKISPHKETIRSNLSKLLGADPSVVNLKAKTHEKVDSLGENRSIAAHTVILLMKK
Description: as §1
The IspF assay mixture conditions were as follows: 100 mM Tris hydrochloride at pH 8.0 with 10 mM MgCl2, 1 mM dithiothreitol, 2.5 mM potassium phosphoenol pyruvate, 2 mM ATP, 1 mM of 4-diphosphocytidyl-2C methylerythritol 2-phosphate, 460 μM NADH, 1.1% (v/v) DMSO, 0.5 U CMP kinase, 2.4 mU IspF, 1 U lactate dehydrogenase, 1 U pyruvate kinase in 180 μL of solution. Solutions were incubated at 27° C. and monitored photometrically.

[12] = system: Burkholderia thailandensis; type: cell-based; details: preliminary screening, score 0-3
Mycobacterium smegmatis [13] = experiment: Antibacterial preliminary screening MS; type: cell-based; details: score 0-3; note: key: 0 represents no inhibition; 3 is comparable to commercial antibiotic control
Corynebacterium xerosis [14] = experiment: Antibacterial preliminary screening CX; type: cell-based; details: score 0-3; note: key: 0 represents no inhibition; 3 is comparable to commercial antibiotic control
[15] = system: Corynebacterium pseudodiphtheriae; experiment: Antibacterial preliminary screening CP; type: cell-based; details: score 0-3;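 note: 0 is no inhibition and 3 matches the commercial antibiotic control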
Escherichia coli [16] = experiment: Antibacterial preliminary screening EC; type: cell-based; details: score 0-3; note: key: 0 represents no inhibition; 3 is comparable to commercial antibiotic control
Klebsiella pneumonia [17] = experiment: Antibacterial preliminary screening KP; type: cell-based; details: score 0-3; note: key: 0 represents no inhibition; 3 is comparable to commercial antibiotic control
Micrococcus luteus [18] = experiment: Antibacterial preliminary screening ML; type: cell-based; details: score 0-3; note: key: 0 represents no inhibition; 3 is comparable to commercial antibiotic control
Bacillus cereus [19] = experiment: Antibacterial preliminary screening BC; type: cell-based; details: score 0-3; note: key: 0 represents no inhibition; 3 is comparable to commercial antibiotic control
Pseudomonas aeruginosa [20] = experiment: Antibacterial preliminary screening PA; type: cell-based; details: score 0-3; note: key: 0 represents no inhibition; 3 is comparable to commercial antibiotic control

COc1ccc(OCc2nnc(-c3nc4ccccc4s3)o2)cc1 [HGN-833]
Antibacterial Bt zone of inhibition ([1]; 0.1 mM): 0 12 17 millimeters
Antibacterial Bt zone of inhibition ([1]; 0.5 mM): 0 12 17 millimeters
Antibacterial Bt zone of inhibition ([1]; 1 mM): 0 12 17 millimeters
Antibacterial Pa zone of inhibition (Pseudomonas aeruginosa [2]; 0.1 mM): 0 millimeters
Antibacterial Pa zone of inhibition (Pseudomonas aeruginosa [2]; 0.5 mM): 0 millimeters
Antibacterial Pa zone of inhibition (Pseudomonas aeruginosa [2]; 1 mM): 0 millimeters
Antibacterial Ml zone of inhibition (Micrococcus luteus [3]; 0.1 mM): 0 millimeters
Antibacterial Ml zone of inhibition (Micrococcus luteus [3]; 0.5 mM): 0 millimeters
Antibacterial Ml zone of inhibition (Micrococcus luteus [3]; 1 mM): 13 millimeters
Antibacterial Kp zone of inhibition (Klebsiella pneumonia [4]; 0.1 mM): 0 millimeters
Antibacterial Kp zone of inhibition (Klebsiella pneumonia [4]; 0.5 mM): 0 millimeters
Antibacterial Kp zone of inhibition (Klebsiella pneumonia [4]; 1 mM): 0 millimeters
Antibacterial Ec zone of inhibition (Escherichia coli [5]; 0.1 mM): 0 millimeters
Antibacterial Ec zone of inhibition (Escherichia coli [5]; 0.5 mM): 0 millimeters
Antibacterial Ec zone of inhibition (Escherichia coli [5]; 1 mM): 0 millimeters
Antibacterial Bc zone of inhibition (Bacillus cereus [6]; 0.1 mM): 0 millimeters
Antibacterial Bc zone of inhibition (Bacillus cereus [6]; 0.5 mM): 10 millimeters
Antibacterial Bc zone of inhibition (Bacillus cereus [6]; 1 mM): 15 millimeters
Antibacterial Ms zone of inhibition (Mycobacterium smegmatis [7]; 0.1 mM): 0 millimeters
Antibacterial Ms zone of inhibition (Mycobacterium smegmatis [7]; 0.5 mM): 0 millimeters
Antibacterial Ms zone of inhibition (Mycobacterium smegmatis [7]; 1 mM): 0 millimeters
Antibacterial Cx zone of inhibition (Corynebacterium xerosis [8]; 0.1 mM): 0 millimeters
Antibacterial Cx zone of inhibition (Corynebacterium xerosis [8]; 0.5 mM): 0 millimeters
Antibacterial Cx zone of inhibition (Corynebacterium xerosis [8]; 1 mM): 15 millimeters
Antibacterial Cp zone of inhibition ([9]; 0.1 mM): 0 millimeters
Antibacterial Cp zone of inhibition ([9]; 0.5 mM): 0 millimeters
Antibacterial Cp zone of inhibition ([9]; 1 mM): 14 millimeters

Clc1ccc(OCc2nnc(-c3cc4ccccc4[nH]3)o2)c(Cl)c1 [HGN-810]
Antibacterial Bt zone of inhibition ([1]; 0.1 mM): 0 11.5 17 millimeters
Antibacterial Bt zone of inhibition ([1]; 0.5 mM): 0 11.5 17 millimeters
Antibacterial Bt zone of inhibition ([1]; 1 mM): 0 11.5 17 millimeters
Antibacterial Pa zone of inhibition (Pseudomonas aeruginosa [2]; 0.1 mM): 0 millimeters
Antibacterial Pa zone of inhibition (Pseudomonas aeruginosa [2]; 0.5 mM): 0 millimeters
Antibacterial Pa zone of inhibition (Pseudomonas aeruginosa [2]; 1 mM): 0 millimeters
Antibacterial Ml zone of inhibition (Micrococcus luteus [3]; 0.1 mM): 0 millimeters
Antibacterial Ml zone of inhibition (Micrococcus luteus [3]; 0.5 mM): 0 millimeters
Antibacterial Ml zone of inhibition (Micrococcus luteus [3]; 1 mM): 0 millimeters
Antibacterial Kp zone of inhibition (Klebsiella pneumonia [4]; 0.1 mM): 0 millimeters
Antibacterial Kp zone of inhibition (Klebsiella pneumonia [4]; 0.5 mM): 0 millimeters
Antibacterial Kp zone of inhibition (Klebsiella pneumonia [4]; 1 mM): 0 millimeters
Antibacterial Ec zone of inhibition (Escherichia coli [5]; 0.1 mM): 0 millimeters
Antibacterial Ec zone of inhibition (Escherichia coli [5]; 0.5 mM): 0 millimeters
Antibacterial Ec zone of inhibition (Escherichia coli [5]; 1 mM): 0 millimeters
Antibacterial Bc zone of inhibition (Bacillus cereus [6]; 0.1 mM): 0 millimeters
Antibacterial Bc zone of inhibition (Bacillus cereus [6]; 0.5 mM): 11 millimeters
Antibacterial Bc zone of inhibition (Bacillus cereus [6]; 1 mM): 16.5 millimeters
Antibacterial Ms zone of inhibition (Mycobacterium smegmatis [7]; 0.1 mM): 0 millimeters
Antibacterial Ms zone of inhibition (Mycobacterium smegmatis [7]; 0.5 mM): 0 millimeters
Antibacterial Ms zone of inhibition (Mycobacterium smegmatis [7]; 1 mM): 0 millimeters
Antibacterial Cx zone of inhibition (Corynebacterium xerosis [8]; 0.1 mM): 0 millimeters
Antibacterial Cx zone of inhibition (Corynebacterium xerosis [8]; 0.5 mM): 0 millimeters
Antibacterial Cx zone of inhibition (Corynebacterium xerosis [8]; 1 mM): 0 millimeters
Antibacterial Cp zone of inhibition ([9]; 0.1 mM): 0 millimeters
Antibacterial Cp zone of inhibition ([9]; 0.5 mM): 0 millimeters
Antibacterial Cp zone of inhibition ([9]; 1 mM): 0 millimeters

c1ccc(-c2cccc(-c3nnc(-c4cc5ccccc5[nH]4)o3)c2)cc1 [HGN-287, 2-([1,1′-biphenyl]-3-yl)-5-(1H-indol-2-yl)-1,3,4-oxadiazole]
MtIspD melting point change [10]: 0.5 °C
MtIspD melting temp [10]: 48.5 °C
LeIspE melting point change [11]: −0.25 °C
LeIspE melting temp [11]: 49.25 °C
Bleaching (lettuce seeds; 0.15 mM): 0
Germination (lettuce seeds; 0.15 mM): 0
Root Dev. (lettuce seeds; 0.15 mM): 0
Bleaching (lettuce seeds; 0.3 mM): 0
Germination (lettuce seeds; 0.3 mM): 0
Root Dev. (lettuce seeds; 0.3 mM): 0
IC50 (AtIspD): 501 ± 82 µM
IC50 (LeIspE): > 1000 µM
IC50 (AtIspF): > 1000 µM
BT score [12]: 0
MS score (Mycobacterium smegmatis [13]): 0
CX score (Corynebacterium xerosis [14]): 0
CP score [15]: 0
EC score (Escherichia coli [16]): 0
KP score (Klebsiella pneumonia [17]): 0
ML score (Micrococcus luteus [18]): 0
BC score (Bacillus cereus [19]): 0
PA score (Pseudomonas aeruginosa [20]): 0

COc1ccc(-c2nnc(-c3cc4ccccc4[nH]3)o2)cc1 [HGN-223, 2-(1H-indol-2-yl)-5-(4-methoxyphenyl)-1,3,4-oxadiazole]
MtIspD melting point change [10]: 0.0 °C
MtIspD melting temp [10]: 48.0 °C
LeIspE melting point change [11]: −0.25 °C
LeIspE melting temp [11]: 49.25 °C
Bleaching (lettuce seeds; 0.5 mM): 0
Germination (lettuce seeds; 0.5 mM): 1
Root Dev. (lettuce seeds; 0.5 mM): 0
Bleaching (lettuce seeds; 1.0 mM): 0
Germination (lettuce seeds; 1.0 mM): 4
Root Dev. (lettuce seeds; 1.0 mM): 0
IC50 (AtIspD): 209 ± 29 µM
IC50 (LeIspE): 126 ± 12 µM
IC50 (AtIspF): > 1000 µM
BT score [12]: 0
MS score (Mycobacterium smegmatis [13]): 0
CX score (Corynebacterium xerosis [14]): 0
CP score [15]: 0
EC score (Escherichia coli [16]): 0
KP score (Klebsiella pneumonia [17]): 0
ML score (Micrococcus luteus [18]): 0
BC score (Bacillus cereus [19]): 0
PA score (Pseudomonas aeruginosa [20]): 0

c1ccc(-c2ccc(-c3nnc(-c4cc5ccccc5[nH]4)o3)cc2)cc1 [HGN-288, 2-([1,1′-biphenyl]-4-yl)-5-(1H-indol-2-yl)-1,3,4-oxadiazole]
MtIspD melting point change [10]: 1.0 °C
MtIspD melting temp [10]: 49.0 °C
LeIspE melting point change [11]: −1.50 °C
LeIspE melting temp [11]: 48.00 °C
Bleaching (lettuce seeds; 0.1 mM): 0
Germination (lettuce seeds; 0.1 mM): 0
Root Dev. (lettuce seeds; 0.1 mM): 0
Bleaching (lettuce seeds; 0.2 mM): 0
Germination (lettuce seeds; 0.2 mM): 0
Root Dev. (lettuce seeds; 0.2 mM): 0
IC50 (AtIspD): 255 ± 35 µM
IC50 (LeIspE): > 1000 µM
IC50 (AtIspF): > 1000 µM
BT score [12]: 0
MS score (Mycobacterium smegmatis [13]): 0
CX score (Corynebacterium xerosis [14]): 0
CP score [15]: 0
EC score (Escherichia coli [16]): 0
KP score (Klebsiella pneumonia [17]): 0
ML score (Micrococcus luteus [18]): 0
BC score (Bacillus cereus [19]): 0
PA score (Pseudomonas aeruginosa [20]): 0
